Measurements published in patent US9012443B2 (Amgen Inc., priority 2011, dated 2015).
Structures can show the parent of a compound that is named as a salt.

Target: Nav 1.7 (Homo sapiens (Human), UniProt Q15858)
Assay: Nav 1.7 in vitro PX assay (PatchXpress whole cell voltage clamp)
Type: cell-based
Settings: 293 cells, human Nav1.7, partially inactivated state; read-out: Nav1.7 PX IC50 IP
Description: Nav 1.7 In Vitro PX Assay
293 cells stably transfected with human Nav1.7 were recorded in whole cell voltage clamp mode with the PatchXpress automated electrophysiology system (Molecular Devices, LLC, Sunnyvale, Calif.). Compound effects were measured on a partially inactivated state of the sodium channel. Cells were clamped to a holding potential yielding 20 to 50% inactivation. To elicit sodium current, channels were activated by pulsing to −10 mV for 20 msec. […] A single concentration of test compound was applied to cells for a duration of 3 minutes. Peak sodium current was measured at the end of the compound addition period to determine percent inhibition. Three to five cells were tested per concentration, and IC50 curves were fitted to percent inhibition as a function of concentration.

Sequence of Nav 1.7 (Q15858 whole entry): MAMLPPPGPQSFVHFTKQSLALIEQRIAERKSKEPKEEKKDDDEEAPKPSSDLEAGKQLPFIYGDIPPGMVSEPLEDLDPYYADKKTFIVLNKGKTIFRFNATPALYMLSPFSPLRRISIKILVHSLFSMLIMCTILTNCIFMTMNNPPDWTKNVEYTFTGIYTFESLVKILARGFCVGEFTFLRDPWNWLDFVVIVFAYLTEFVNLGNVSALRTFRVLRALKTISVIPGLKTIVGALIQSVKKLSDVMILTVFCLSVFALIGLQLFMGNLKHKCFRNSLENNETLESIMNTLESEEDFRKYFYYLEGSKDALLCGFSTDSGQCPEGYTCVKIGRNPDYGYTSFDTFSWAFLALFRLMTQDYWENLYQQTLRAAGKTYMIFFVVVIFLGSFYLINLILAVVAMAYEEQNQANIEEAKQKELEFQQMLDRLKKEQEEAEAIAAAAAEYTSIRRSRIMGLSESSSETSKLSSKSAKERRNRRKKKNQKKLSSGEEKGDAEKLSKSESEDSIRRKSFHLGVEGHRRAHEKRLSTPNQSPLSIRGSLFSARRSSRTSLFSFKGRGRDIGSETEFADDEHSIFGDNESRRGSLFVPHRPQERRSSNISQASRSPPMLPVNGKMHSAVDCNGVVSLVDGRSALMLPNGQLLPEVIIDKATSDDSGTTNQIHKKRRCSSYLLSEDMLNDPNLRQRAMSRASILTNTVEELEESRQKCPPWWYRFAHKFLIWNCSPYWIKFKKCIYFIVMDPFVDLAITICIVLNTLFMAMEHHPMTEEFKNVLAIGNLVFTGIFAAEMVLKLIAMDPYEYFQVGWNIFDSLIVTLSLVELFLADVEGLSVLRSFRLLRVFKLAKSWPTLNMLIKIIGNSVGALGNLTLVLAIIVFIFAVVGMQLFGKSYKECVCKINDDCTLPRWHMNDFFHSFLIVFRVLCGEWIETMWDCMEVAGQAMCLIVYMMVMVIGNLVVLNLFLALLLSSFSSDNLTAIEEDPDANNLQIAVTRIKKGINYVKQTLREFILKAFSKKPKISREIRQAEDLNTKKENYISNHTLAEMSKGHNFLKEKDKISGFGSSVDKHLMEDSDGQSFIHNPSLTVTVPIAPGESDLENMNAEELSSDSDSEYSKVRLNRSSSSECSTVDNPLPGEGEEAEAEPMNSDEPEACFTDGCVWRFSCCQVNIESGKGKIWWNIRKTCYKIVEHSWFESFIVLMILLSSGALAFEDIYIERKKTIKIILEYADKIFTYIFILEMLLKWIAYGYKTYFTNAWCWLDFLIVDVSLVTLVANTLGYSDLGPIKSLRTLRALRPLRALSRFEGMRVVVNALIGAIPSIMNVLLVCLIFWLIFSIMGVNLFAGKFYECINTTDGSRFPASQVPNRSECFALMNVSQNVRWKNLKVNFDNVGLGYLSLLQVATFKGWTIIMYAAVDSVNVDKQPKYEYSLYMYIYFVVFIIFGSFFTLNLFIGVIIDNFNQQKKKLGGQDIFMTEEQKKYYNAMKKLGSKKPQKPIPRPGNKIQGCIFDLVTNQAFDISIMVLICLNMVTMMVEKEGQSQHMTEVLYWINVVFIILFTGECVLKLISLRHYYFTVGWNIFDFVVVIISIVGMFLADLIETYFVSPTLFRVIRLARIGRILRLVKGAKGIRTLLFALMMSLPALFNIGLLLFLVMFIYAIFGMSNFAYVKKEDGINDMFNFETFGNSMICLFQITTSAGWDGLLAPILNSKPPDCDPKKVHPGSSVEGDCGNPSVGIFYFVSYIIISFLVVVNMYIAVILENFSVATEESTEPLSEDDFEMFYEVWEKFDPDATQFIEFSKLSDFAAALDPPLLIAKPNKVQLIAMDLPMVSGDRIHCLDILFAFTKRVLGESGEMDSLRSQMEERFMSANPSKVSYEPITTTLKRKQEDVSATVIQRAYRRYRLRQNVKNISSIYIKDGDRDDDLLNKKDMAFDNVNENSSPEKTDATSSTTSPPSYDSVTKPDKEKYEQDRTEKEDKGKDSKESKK

| Compound | IC50 |
| --- | --- |
| COc1cc(-c2cnc(F)c(C)c2)ccc1-c1nccc2cc(S(=O)(=O)Nc3ccncn3)ccc12 [Example 481, 1-(4-(6-FLUORO-5-METHYLPYRIDIN-3-YL)-2-METHOXYPHENYL)-N-(PYRIMIDIN-4-YL)ISOQUINOLINE-6-SULFONAMIDE] | 0.788 µM |
| COc1cc(F)ccc1-c1cncc2cc(S(=O)(=O)Nc3nccs3)ccc12 [Example 290, 4-(4-FLUORO-2-METHOXYPHENYL)-N-(THIAZOL-2-YL)ISOQUINOLINE-7-SULFONAMIDE] | 0.6 µM |
| Cc1cc(C#N)ccc1-c1nccc2cc(S(=O)(=O)Nc3ncns3)ccc12 [Example 359] | 2.38 µM |
| COc1cc(-c2ccc(C)nc2)ccc1-c1nccc2cc(S(=O)(=O)Nc3ccncn3)ccc12 [Example 477, 1-(2-METHOXY-4-(6-METHYLPYRIDIN-3-YL)PHENYL)-N-(PYRIMIDIN-4-YL)ISOQUINOLINE-6-SULFONAMIDE] | 4.04 µM |
| COc1cc(C(F)(F)F)ccc1-c1nccc2cc(S(=O)(=O)N=C3NC(=O)CS3)ccc12 [Example 248, (E/Z)-1-(2-METHOXY-4-(TRIFLUOROMETHYL)PHENYL)-N-(4-OXOTHIAZOLIDIN-2-YLIDENE)ISOQUINOLINE-6-SULFONAMIDE] | 0.91 µM |
| Cc1cc(C#N)ccc1-c1ncnc2cc(S(=O)(=O)Nc3nccs3)ccc12 [Example 542] | 5.02 µM |
| COc1cc(C2(F)COC2)ccc1-c1nc(C)nc2cc(S(=O)(=O)Nc3nccs3)ccc12 [Example 516, 4-(4-(3-FLUOROOXETAN-3-YL)-2-METHOXYPHENYL)-2-METHYL-N-(THIAZOL-2-YL)QUINAZOLINE-7-SULFONAMIDE] | 1.05 µM |
| COc1cc(C(F)(F)F)ccc1-c1ccnc2c(C)c(S(=O)(=O)Nc3nccs3)ccc12 [Example 328, 4-(2-METHOXY-4-(TRIFLUOROMETHYL)PHENYL)-8-METHYL-N-(THIAZOL-2-YL)QUINOLINE-7-SULFONAMIDE] | 6.87 µM |
| COc1cc(C(F)(F)F)ccc1-c1nc(=O)[nH]c2cc(S(=O)(=O)Nc3nccs3)ccc12 [Example 543, 4-(2-METHOXY-4-(TRIFLUOROMETHYL)PHENYL)-2-OXO-N-(THIAZOL-2-YL)-1,2-DIHYDROQUINAZOLINE-7-SULFONAMIDE] | 4.56 µM |
| COc1cc(-c2cncc(C)c2)ccc1-c1nccc2cc(S(=O)(=O)Nc3ccncn3)ccc12 [Example 478, 1-(2-METHOXY-4-(5-METHYLPYRIDIN-3-YL)PHENYL)-N-(PYRIMIDIN-4-YL)ISOQUINOLINE-6-SULFONAMIDE] | 3.64 µM |
| Cc1cnc(OC2CCNCC2)c(-c2nccc3cc(S(=O)(=O)Nc4nccs4)ccc23)c1 [Example 378, 1-(5-METHYL-2-(PIPERIDIN-4-YLOXY)PYRIDIN-3-YL)-N-(THIAZOL-2-YL)ISOQUINOLINE-6-SULFONAMIDE] | 2.42 µM |
| COc1ccccc1-c1n[nH]c(=O)c2cc(S(=O)(=O)Nc3ncns3)ccc12 [Example 508, 1-(2-METHOXYPHENYL)-4-OXO-N-(1,2,4-THIADIAZOL-5-YL)-3,4-DIHYDROPHTHALAZINE-6-SULFONAMIDE] | 1.3 µM |
| COc1cc(C(F)(F)F)ccc1-c1n[nH]c(=O)c2cc(S(=O)(=O)Nc3ccncn3)ccc12 [Example 506, 1-(2-METHOXY-4-(TRIFLUOROMETHYL)PHENYL)-4-OXO-N-(PYRIMIDIN-4-YL)-3,4-DIHYDROPHTHALAZINE-6-SULFONAMIDE] | 3 µM |
| O=S(=O)(Nc1nccs1)c1ccc2c(-c3cc(F)ccc3OC(F)F)nccc2c1 [Example 413, 1-(2-(DIFLUOROMETHOXY)-5-FLUOROPHENYL)-N-(THIAZOL-2-YL)ISOQUINOLINE-6-SULFONAMIDE] | 0.83 µM |
| COc1cc(C(F)(F)F)ccc1-c1c[nH]c(=O)c2cc(S(=O)(=O)Nc3nccs3)ccc12 [Example 544, 4-(2-METHOXY-4-(TRIFLUOROMETHYL)PHENYL)-1-OXO-N-(THIAZOL-2-YL)-1,2-DIHYDROISOQUINOLINE-7-SULFONAMIDE] | 0.709 µM |
| COc1cc(C(F)(F)F)ccc1-c1nccc2cc(S(=O)(=O)Nc3nnc(Cl)s3)ccc12 [Example 425, N-(5-CHLORO-1,3,4-THIADIAZOL-2-YL)-1-(2-METHOXY-4-(TRIFLUOROMETHYL)PHENYL)ISOQUINOLINE-6-SULFONAMIDE] | 2.21 µM |
| O=S(=O)(Nc1nccs1)c1ccc2c(-c3ccccc3Cl)nccc2c1 [Example 179, 1-(2-CHLOROPHENYL)-N-(THIAZOL-2-YL)ISOQUINOLINE-6-SULFONAMIDE] | 1.3 µM |
| COc1cc(C#N)ccc1-c1nc(C)nc2cc(S(=O)(=O)Nc3nccs3)ccc12 [Example 517, 4-(4-CYANO-2-METHOXYPHENYL)-2-METHYL-N-(THIAZOL-2-YL)QUINAZOLINE-7-SULFONAMIDE] | 1.28 µM |
| COC[C@H]1CCCN1c1ncnc2cc(S(=O)(=O)Nc3nccs3)ccc12 [Example 534, (R)-4-(2-(METHOXYMETHYL)PYRROLIDIN-1-YL)-N-(THIAZOL-2-YL)QUINAZOLINE-7-SULFONAMIDE] | 29.3 µM |
| Cc1cnc(F)c(-c2nccc3cc(S(=O)(=O)Nc4nccs4)ccc23)c1 [Example 377, 1-(2-FLUORO-5-METHYLPYRIDIN-3-YL)-N-(THIAZOL-2-YL)ISOQUINOLINE-6-SULFONAMIDE] | 24.5 µM |
| COc1cc(C#N)ccc1-c1ncc(F)c2cc(S(=O)(=O)Nc3ncns3)ccc12 [Example 395, 1-(4-CYANO-2-METHOXYPHENYL)-4-FLUORO-N-(1,2,4-THIADIAZOL-5-YL)ISOQUINOLINE-6-SULFONAMIDE] | 0.761 µM |
| COc1cc(-c2cccnc2C)ccc1-c1nccc2cc(S(=O)(=O)Nc3ccncn3)ccc12 [Example 476, 1-(2-METHOXY-4-(2-METHYLPYRIDIN-3-YL)PHENYL)-N-(PYRIMIDIN-4-YL)ISOQUINOLINE-6-SULFONAMIDE] | 2.89 µM |
| Cc1cc(C#N)ccc1-c1ccnc2cc(S(=O)(=O)Nc3ncns3)ccc12 [Example 323] | 2.3 µM |

Now from value to molecule:

| IC50 | Compound |
| --- | --- |
| 1.83 µM | COc1cc(-c2ccc3[nH]ccc3c2)ccc1-c1nccc2cc(S(=O)(=O)Nc3ccncn3)ccc12 [Example 489, 1-(4-(1H-INDOL-5-YL)-2-METHOXYPHENYL)-N-(PYRIMIDIN-4-YL)ISOQUINOLINE-6-SULFONAMIDE] |
| 4.22 µM | COc1cc(C#N)ccc1-c1cncc2cc(S(=O)(=O)Nc3ccncn3)ccc12 [Example 286, 4-(4-CYANO-2-METHOXYPHENYL)-N-(PYRIMIDIN-4-YL)ISOQUINOLINE-7-SULFONAMIDE HYDROCHLORIDE] |
| 4.7 µM | COc1cc(-c2nccs2)ccc1-c1nccc2cc(S(=O)(=O)Nc3ccncn3)ccc12 [Example 456, 1-(2-METHOXY-4-(THIAZOL-2-YL)PHENYL)-N-(PYRIMIDIN-4-YL)ISOQUINOLINE-6-SULFONAMIDE] |
| 1.07 µM | CC(C#N)Oc1cc(F)ccc1-c1nccc2cc(S(=O)(=O)Nc3nccs3)ccc12 (stereo not drawn) [Example 415, 1-(2-(1-CYANOETHOXY)-4-FLUOROPHENYL)-N-(THIAZOL-2-YL)ISOQUINOLINE-6-SULFONAMIDE] |
| 1.88 µM | COc1cc(-c2cncc(F)c2)ccc1-c1nccc2cc(S(=O)(=O)Nc3ccncn3)ccc12 [Example 475, 1-(4-(5-FLUOROPYRIDIN-3-YL)-2-METHOXYPHENYL)-N-(PYRIMIDIN-4-YL)ISOQUINOLINE-6-SULFONAMIDE] |
| 4.97 µM | COc1ncccc1-c1nccc2cc(S(=O)(=O)Nc3nccs3)ccc12 [Example 407, 1-(2-METHOXYPYRIDIN-3-YL)-N-(THIAZOL-2-YL)ISOQUINOLINE-6-SULFONAMIDE] |
| 2.61 µM | COc1cc(-c2ccnc(F)c2)ccc1-c1nccc2cc(S(=O)(=O)Nc3ccncn3)ccc12 [Example 474, 1-(4-(2-FLUOROPYRIDIN-4-YL)-2-METHOXYPHENYL)-N-(PYRIMIDIN-4-YL)ISOQUINOLINE-6-SULFONAMIDE] |
| 1.87 µM | COc1cc(-c2ccc(F)nc2)ccc1-c1nccc2cc(S(=O)(=O)Nc3ccncn3)ccc12 [Example 352, 1-(4-(6-FLUOROPYRIDIN-3-YL)-2-METHOXYPHENYL)-N-(PYRIMIDIN-4-YL)ISOQUINOLINE-6-SULFONAMIDE] |
| 2.49 µM | COc1cc(C(F)(F)F)ccc1-c1nccc2cc(S(=O)(=O)Nc3ncc(F)cn3)ccc12 [Example 426] |
| 4.88 µM | COc1cc(C(F)F)c(OC)cc1-c1nccc2cc(S(=O)(=O)Nc3ccncn3)ccc12 [Example 453, 1-(4-(DIFLUOROMETHYL)-2,5-DIMETHOXYPHENYL)-N-(PYRIMIDIN-4-YL)ISOQUINOLINE-6-SULFONAMIDE] |
| 1.22 µM | N#CC(F)Oc1cc(F)ccc1-c1nccc2cc(S(=O)(=O)Nc3nccs3)ccc12 (stereo not drawn) [Example 416, 1-(2-(CYANOFLUOROMETHOXY)-4-FLUOROPHENYL)-N-(THIAZOL-2-YL)ISOQUINOLINE-6-SULFONAMIDE] |
| 0.778 µM | COc1cc(-c2cccnc2OC)ccc1-c1nccc2cc(S(=O)(=O)Nc3ccncn3)ccc12 [Example 482, 1-(2-METHOXY-4-(2-METHOXYPYRIDIN-3-YL)PHENYL)-N-(PYRIMIDIN-4-YL)ISOQUINOLINE-6-SULFONAMIDE] |
| 0.835 µM | COc1cc(C(F)(F)F)ccc1-c1nccc2cc(S(=O)(=O)Nc3cc(Cl)ncn3)ccc12 [Example 422, N-(6-CHLOROPYRIMIDIN-4-YL)-1-(2-METHOXY-4-(TRIFLUOROMETHYL)PHENYL)ISOQUINOLINE-6-SULFONAMIDE] |
| 0.904 µM | COc1cc(-c2ccc(C#N)cc2)ccc1-c1nccc2cc(S(=O)(=O)Nc3ccncn3)ccc12 [Example 455, 1-(4′-CYANO-3-METHOXY-[1,1′-BIPHENYL]-4-YL)-N-(PYRIMIDIN-4-YL)ISOQUINOLINE-6-SULFONAMIDE] |
| 0.567 µM | COc1cc(Oc2ccccc2F)ccc1-c1nccc2cc(S(=O)(=O)Nc3ccncn3)ccc12 [Example 465, 1-(4-(2-FLUOROPHENOXY)-2-METHOXYPHENYL)-N-(PYRIMIDIN-4-YL)ISOQUINOLINE-6-SULFONAMIDE] |
| 1.07 µM | COc1cc(OCC(F)(F)F)ccc1-c1nccc2cc(S(=O)(=O)Nc3ccncn3)ccc12 [Example 362, 1-(2-METHOXY-4-(2,2,2-TRIFLUOROETHOXY)PHENYL)-N-(PYRIMIDIN-4-YL)ISOQUINOLINE-6-SULFONAMIDE] |
